According to patent US12419869B2, “Methods of treating multiple sclerosis” (Vanda Pharmaceuticals Inc., priority 2021, dated 2025):
Values joined by “and” are separate entries in the source; they are usually repeats but may differ in a detail not shown here. Equal values may be shown once.

Tests used:
[1] = tested on: adult subjects with relapsing MS; assay: Brain MRI lesions (CUAL, Gd+ T1, new/enlarging T2) from baseline to Week 108; format: in vivo, human; conditions: for CUAL mean estimate (Lesions per year): baseline to Week 108, negative binomial regression, Full Analysis Set
Description: CUAL are new Gd+T1 lesions plus new or enlarging T2 lesions (without double-counting of lesions).
MRI scans were performed at Visits 2 (Baseline), 10 (Week 60), and 14 (EOT) and at any unscheduled visit (U1, U2, etc.). If applicable, MRI scans also were performed at the corresponding visits in the PTOP (Visits 10A and 14A). Testing at all visits were performed up to 7 days prior to or after the visit date.
MRI variables included the number and volume of new and total Gd+ lesions on T1-weighted MRI scans, number of new and enlarging lesions and lesion volume on T2-weighted MRI, and global measures of loss of brain tissue.
T1-weighted imaging before and after i.v. administration of 0.1 mmol/kg body weight (=0.2 mL/kg) of Gd as well as PD-T2-weighted imaging was performed. Gd may cause nausea and vomiting and in very rare cases allergic reactions that could require immediate anti-anaphylactic therapy (such as steroids, epinephrine/adrenaline, etc.).
Patients (18-55 years) with RMS (expanded disability status scale scores: 0-5.5) were randomized (1:1) to receive ponesimod (PON) 20 mg or teriflunomide (TER) 14 mg for 108 weeks. MRI assessments were: volume of T2 lesions; mean number of new gadolinium-enhancing (Gd+) T1 lesions and new/enlarging T2 lesions; and absence of active MRI lesions at week 108. NEDA-3 status (absence of confirmed relapse, Gd+T1 lesions and new/enlarging T2 lesions on annual MRIs, and 12-week confirmed disability accumulation) was evaluated from baseline to week 108.

[2] = tested on: adult subjects with relapsing MS; assay: Confirmed relapses / annualized relapse rate up to EOS, phase III study ponesimod 20 mg vs teriflunomide 14 mg; format: in vivo, human; conditions: for Mean estimate (ARR), confirmed relapses up to EOS: negative binomial regression, teriflunomide 14 mg, ponesimod 20 mg; for Percentage of patients without relapse: study period of approximately 108 weeks
Description: Primary efficacy variable/primary timepoint: The primary endpoint was annualized relapse rate (ARR) up to the end of study (EOS) defined as the number of confirmed relapses per subject-year. All available data up to EOS, regardless of treatment discontinuation was included (ITT approach).
The primary statistical analysis of the ARR endpoint was performed on the FAS using a negative binomial model for confirmed relapses, with the stratification variables prior use of disease-modifying therapies (DMTs) and EDSS category as well as the number of relapses in the year prior to study entry, included in the model and time in the study as an offset variable. Sensitivity analyses was performed on the PPS and also based on different subgroups derived from baseline variables.
A relapse is defined as new, worsening or recurrent neurological symptoms that occur at least 30 days after the onset of a preceding relapse, and that last at least 24 hours, in the absence of fever or infection.
A relapse was confirmed by the treating neurologist only when the subjects' symptoms were accompanied by an increase in EDSS/FS (functional system) scores, which were consistent with the subject's symptoms, from a previous clinically stable EDSS/FS assessment (i.e., performed at least 30 days after the onset of any previous relapse), obtained by the efficacy assessor and consistent with the following: • An increase of at least half a step (0.5 points; unless EDSS=0, then an increase of at least 1.0 points is required) or • An increase of at least 1.0 point in at least two FS scores, or • An increase of at least 2.0 points in at least one FS score (excluding bladder/bowel and cerebral).
The primary statistical analysis was performed up to EOS on the FAS using a negative binomial regression model for confirmed relapses, with treatment as a factor and the binary stratification variables (EDSS≤3.5 versus EDSS>3.5; DMTs within last 2 years prior to randomization [Yes/No]) and the number of relapses in the year prior to study entry (categories≤1 (or missing) and […]) included in the model. The model also included an offset variable defined as the log of time on study (in years) from randomization up to EOS.

[3] = tested on: adult subjects with relapsing MS; parameters: species or system human; conditions: in vivo; for Discontinuation rate because of elevations in hepatic enzymes / Patients with elevations of ALT to 5-fold the ULN or greater / Subjects with ALT increase >3×ULN (label: 3-fold the ULN or greater) / Subjects with ALT increase >8×ULN: human, 2 year
From the text: Based on the individual case review, most ALT/AST increases ≥3×ULN occurred as a single transient asymptomatic episode, resolving with continued treatment or after protocol mandated treatment discontinuation. All but one case of bilirubin increase ≥2×ULN occurred in subjects with pre-treatment bilirubin increases. One case of potential Hy's law occurred in a subject with pre-existing transaminase elevation (ALT>5×ULN), and the event fully resolved within 2 weeks after treatment discontinuation.
In Study 1, elevations of ALT to 5-fold the upper limit of normal (ULN) or greater occurred in 4.6% of patients treated with PONVORY compared to 2.5% of patients who received teriflunomide 14 mg. […] The median time to an elevation of 3-fold the ULN was 3 months. The majority (89%) of patients with ALT increases 3-fold or greater the ULN continued treatment with PONVORY with values returning to less than three times the ULN within approximately 2-4 weeks.

Question: Which results are given for `CCC/N=C1\S/C(=C\c2ccc(OC[C@H](O)CO)c(Cl)c2)C(=O)N1c1ccccc1C` [Ponesimod, (R)-5-[3-chloro-4-(2,3-dihydroxy-propoxy)-benz[Z]ylidene]-2-([Z]-propylimino)-3-o-tolyl-thiazolidin-4-one]?
Answer: CUAL mean estimate (Lesions per year) [1]: 1.405 lesions per year; CUAL mean estimate (Lesions per year) ([1]; listed as ponesimod): 1.405 lesions per year; CUAL treatment effect (Rate Ratio) ponesimod vs teriflunomide ([1]; baseline to week 108): 0.444 and 0.44; LS mean difference (PON-TER) in change from baseline in total volume of T2 lesions ([1]; baseline to week 108): −399.2 mm^3; Mean number of new Gd+ T1 lesions per scan / per MRI ([1]; baseline to week 108): 0.18; Mean number of new/enlarging T2 lesions per year ([1]; baseline to week 108): 1.40; Rate ratio, new Gd+ T1 lesions per scan, PON vs TER ([1]; baseline to week 108): 0.42; Rate ratio, new/enlarging T2 lesions per year, PON vs TER ([1]; baseline to week 108): 0.44; Raw mean lesions/year (CUAL) ([1]; baseline to week 108): 1.559 lesions/year; Reduction of number of CUALs compared to teriflunomide 14 mg ([1]; baseline to week 108): 56%; Total number of lesions (CUAL) ([1]; baseline to week 108): 1671; Relative reduction, T1 Gd-enhancing lesions per MRI ([1]; vs teriflunomide 14 mg): 58.5% (p < 0001); Relative reduction, new or enlarging T2 hyperintense lesions per year ([1]; vs teriflunomide 14 mg): 55.7% (p < 0001); Odds ratio PON vs TER for absence of new Gd+ T1 lesions ([1]; week 108): 2.18; Odds ratio PON vs TER for absence of new/enlarging T2 lesions ([1]; week 108): 1.71; Raw ARR ([2]; Full Analysis Set, up to EOS): 0.216; Total number of relapses ([2]; Full Analysis Set, up to EOS): 242; Treatment effect (rate ratio) on ARR, ponesimod vs teriflunomide ([2]; Full Analysis Set, up to EOS): 0.695; Mean estimate (ARR), confirmed relapses up to EOS ([2]; Full Analysis Set): 0.202; Percentage of patients without relapse [2]: 70.7%; Relative reduction of ARR compared to teriflunomide 14 mg ([2]; up to EOS): 30.5%; Discontinuation rate because of elevations in hepatic enzymes [3]: 2.3%; Patients with elevations of ALT to 5-fold the ULN or greater [3]: 4.6%; Subjects with ALT increase >3×ULN (label: 3-fold the ULN or greater) [3]: 17.3%; Subjects with ALT increase >8×ULN [3]: 0.7%; Median time to an ALT elevation of 3-fold the ULN [3]: 3 months; Patients with ALT increases 3-fold or greater the ULN who continued treatment [3]: 89%; Time for ALT values returning to less than three times the ULN on continued treatment [3]: 2-4 weeks

Question: For `C/C(O)=C(\C#N)C(=O)Nc1ccc(C(F)(F)F)cc1` [Teriflunomide, reference compound], which “CUAL mean estimate (Lesions per year)” value [1] is on record?
Answer: 3.164 lesions per year

Question: And the “Mean number of new Gd+ T1 lesions per scan / per MRI” value ([1]; baseline to week 108)?
Answer: 0.43

Question: What about the “Mean estimate (ARR), confirmed relapses up to EOS” value ([2]; Full Analysis Set) of the same compound?
Answer: 0.290

Question: And the “Percentage of patients without relapse” value [2]?
Answer: 60.6%

Question: What about the “Discontinuation rate because of elevations in hepatic enzymes” value [3] of the same compound?
Answer: 1.9%

Question: And the “Patients with elevations of ALT to 5-fold the ULN or greater” value [3]?
Answer: 2.5%

Question: What about the “Subjects with ALT increase >3×ULN (label: 3-fold the ULN or greater)” value [3] of the same compound?
Answer: 8.3%

Question: And the “Subjects with ALT increase >8×ULN” value [3]?
Answer: 2.1%
